Assay results reported in the supplement of paper PMC4862054.

Experiments:
Assay in all cases: normalised viability (% of control), CellTiter-Blue; higher = more viable cells (about 100 = DMSO control)
Settings in all cases: incubation time: 72 h
HDQ-P1 = tested on: HDQ-P1
Summary of the method: (§1)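 Each entry is normalised viability at a single listed concentration within a series. It comes from breast cancer cell lines incubated 72 h with compound in 384-well plates, then measured with CellTiter-Blue fluorescence at 560/590 nm. Every plate was normalised between vehicle (100) and a positive kill control (0).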

CAL-120 = tested on: CAL-120
Summary of the method: as §1

MFM-223 = tested on: MFM-223
Summary of the method: as §1

DU-4475 = tested on: DU-4475
Summary of the method: as §1

HCC1143 = tested on: HCC1143
Summary of the method: as §1

BT-474 = tested on: BT-474
Summary of the method: as §1

CAL-51 = tested on: CAL-51
Summary of the method: as §1

MDA-MB-453 = tested on: MDA-MB-453
Summary of the method: as §1

CAL-148 = tested on: CAL-148
Summary of the method: as §1

MDA-MB-231 = tested on: MDA-MB-231
Summary of the method: as §1

CCN(CC)CCCC(C)Nc1c2ccc(Cl)cc2nc2ccc(OC)cc12 (stereo not given) [Mepacrine]
normalised viability [%]
Settings	BT-474	CAL-51	CAL-120	CAL-148	DU-4475	HCC1143	HDQ-P1	MDA-MB-231	MDA-MB-453	MFM-223
0.297 nM	–	89.1	–	118	112	–	113	–	106	–
0.99 nM	113	–	114	–	–	123	–	89.4	–	107
2.97 nM	–	91.4	–	110	88	–	109	–	107	–
3 nM	–	105	–	98.7	92.6	–	112	–	114	–
9.9 nM	–	96.2	–	129	101	–	104	–	100	–
10 nM	111	–	102	–	–	93.5	–	102	–	101
30 nM	–	97.8	–	106	89.1	–	113	–	96.7	–
99 nM	104	–	109	–	–	114	–	81.4	–	94.8
100 nM	–	93.3	–	102	96.9	–	116	–	102	–
990 nM	41.1	–	16.3	–	–	45	–	8.45	–	44.5
1000 nM	116	–	89.6	–	–	96.1	–	65	–	100
10000 nM	2.65	–	5.76	–	–	35.5	–	7.28	–	20.9
